Experimental data as given in US10047084B2, “Imidazolone derivatives, pharmaceutical compositions and uses thereof” (BEIJING FORELANDPHARMA CO. LTD., priority 2013, dated 2018).

Assays:
Type in all cases: cell-based
[1] = tested on: SK-BR3/BT474; test: CTG cell survival assay, SK-BR3/BT474; conditions: SK-BR3/BT474 cells
From the text: (§1) 2. CTG Cell Survival Assay:
(§2) ATP is necessarily produced during the metabolic activities of viable cells, and there is a linear relationship between the content of ATP and the number of viable cells. Cell viability assay by CTG chemiluminescence is a general method for detecting the number of viable cells in the culture cells based on this principle. The addition of the CellTiter-Glo (CTG) reagent may induce cell lysis and produce chemiluminescent signals directly proportional to the amount of ATP in the well-plate, and thereby the cell proliferation activity in the well-plate can be measured by the reading values from the chemiluminescence.
(§3) 2.1 Experimental Materials and Instruments:
(§4) 2.4 Experimental Procedure: • 1.4.1 Cell Thawing: Cryogenic vials were removed from the liquid nitrogen container, directly immersed in a water bath at 37° C., and shaked from time to time to thaw. The cryogenic vials were removed from the water bath at 37° C., and transferred to the biosafe cabinet. Their lids were opened, and the cell suspensions were aspirated with pipettes, added to centrifuge tubes, and then added with more than 10 volumes of culture solution, mixed well; centrifuged for 5 min at 1000 rpm; the supernatant was discarded, and medium containing cell growth was added to resuspend cells. All cell suspensions were seeded to the T25 culture flasks and static cultured in an incubator at 37° C.; the culture solution were changed once on the next day, and continued to be cultured. • 2.4.2 Cell Passaging: After cells were grown to logarithmic phase and were 80%-90% confluent, cells were removed and placed in the biosafe cabinet, the old culture solution was discarded, and the cells were wetted and washed with PBS once or twice. An appropriate amount of 0.25% Trypsin-EDTA solution was added to the culture flasks. The flasks were placed in the carbon dioxide incubator at 37° C. for 2-5 min. An appropriate amount of cell growth medium containing 10% PBS was added to terminate the digestion, lightly swished, and transferred to the centrifuge tubes and centrifuged for 5 min at 1000 rpm. The cells were prepare (into cell suspensions for passaging and experimental use. • 2.4.3 Cell Plating • 2.4.3.1 A cell suspension was prepared: After cells were grown to logarithmic phase and were 80%-90% confluent, the cells were removed to the biosafe cabinet, and the old culture solution was discarded, then the cells were wetted and washed with PBS once or twice. An appropriate amount of 0.25% Trypsin-EDTA solution was added to the culture flask. The flask was placed in a carbon dioxide incubator at 37° C. for 2-5 min. An appropriate amount of the cell growth medium containing 10% PBS was added to terminate digestion, and was lightly swished. The solution was transferred to a centrifuge tube, centrifuged for 5 min at 1000 rpm, and counted. […] Secondly, 20 uM of the compound to be tested was diluted with the cell growth medium containing 0.2% DMSO in 3-fold dilution to obtain 9 concentrations, and there were 10 concentration gradients in total. • 2.4.4.3 Addition of the compounds to be tested: the prepared gradient dilution solutions of compounds to be tested were taken and added to the cell culture plate at 100 ul/well; at this point, the maximum concentration of compounds to be tested was 10 uM, and the concentration of DMSO was 0.1%.

[2] = tested on: PC-3; test: CTG cell survival assay, PC-3; conditions: Homo sapiens, PC-3 cells
From the text: as §1, §2, §3, §4

[3] = tested on: MV-4-11; test: CTG cell survival assay, MV-4-11; conditions: Homo sapiens, MV4-11, MV-4-11 cells
From the text: as §1, §2, §3
2.1.1 Experimental Materials: compounds to be tested, cell basal culture medium, RPMI Medium 1640 (Invitrogen, Cat#11875-093), fetal calf serum (FBS): Hyclone FETAL BOVINE SERUM DEFINED (Invitrogen, Cat#SH30070.03), antibiotics: Penicilin Streptomycin (Invitrogen, Cat#15140-122), phosphate buffer (Corning Cellgro, Cat#R21-040-CV), cell digestive solution: 0.25% Trypsin-EDTA (Invitrogen, Cat#25200-056), CTG detection kit: Promega, Cat#G7571, flat-bottom 96-well black bottom plate: NUNC, Cat#165305, T25 culture flask: NUNC, Cat#156367, T75 culture flask: NUNC, Cat#156439
2.2 Experimental Instruments: Carbon Dioxide Incubator, SANYO-MCO-20AIC, Biosafe Cabinet: BSC-1360-LIIA2, Table-Top High-Speed Refrigerated Centrifuge: SorvallST 16R, Microplate Rapid Oscillator: QB-9001, M3 Reader: SpectraMax M3, Microscope: OLYMPUS-CKX41/CKX31.
2.3 Preparation of Solutions and Reagents: Formulation of cell growth medium: RPMI Medium 1640+10% FBS+antibiotics, others: trypsin digestive solution, phosphate buffer (PBS), DMSO, CTG detection kit.
2.4 Experimental Procedure: • 1.4.1 Cell Thawing: Cryogenic vials were removed from the liquid nitrogen container, directly immersed in a water bath at 37° C., and shaked from time to time to thaw. The cryogenic vials were removed from the water bath at 37° C., and transferred to the biosafe cabinet. Their lids were opened, and the cell suspensions were aspirated with pipettes, added to centrifuge tubes, and then added with more than 10 volumes of culture solution, mixed well; centrifuged for 5 min at 1000 rpm; the supernatant was discarded, and medium containing cell growth was added to resuspend cells. All cell suspensions were seeded to the T25 culture flasks and static cultured in an incubator at 37° C.; the culture solution were changed once on the next day, and continued to be cultured. • 2.4.2 Cell Passaging: After cells were grown to logarithmic phase and were 80%-90% confluent, cells were removed and placed in the biosafe cabinet, the old culture solution was discarded, and the cells were wetted and washed with PBS once or twice. An appropriate amount of 0.25% Trypsin-EDTA solution was added to the culture flasks. The flasks were placed in the carbon dioxide incubator at 37° C. for 2-5 min. An appropriate amount of cell growth medium containing 10% PBS was added to terminate the digestion, lightly swished, and transferred to the centrifuge tubes and centrifuged for 5 min at 1000 rpm. The cells were prepare (into cell suspensions for passaging and experimental use. • 2.4.3 Cell Plating • 2.4.3.1 A cell suspension was prepared: After cells were grown to logarithmic phase and were 80%-90% confluent, the cells were removed to the biosafe cabinet, and the old culture solution was discarded, then the cells were wetted and washed with PBS once or twice. An appropriate amount of 0.25% Trypsin-EDTA solution was added to the culture flask. The flask was placed in a carbon dioxide incubator at 37° C. for 2-5 min. An appropriate amount of the cell growth medium containing 10% PBS was added to terminate digestion, and was lightly swished. The solution was transferred to a centrifuge tube, centrifuged for 5 min at 1000 rpm, and counted. […]

| SMILES | EC50 [1] [nM] | EC50 [2] [nM] | EC50 [3] [nM] |
| --- | --- | --- | --- |
| Cn1cc(-c2ccc(-c3ccc4ncc5c(c4c3)n(C3CN(S(C)(=O)=O)C3)c(=O)n5C)cn2)cn1 [Example 64, 3-methyl-8-(6-(1-methyl-1H-pyrazol-4-yl)pyridin-3-yl)-1-(1-(methanesulfonyl)azetidin-3-yl)-1H-imidazo[4,5-c]quinolin-2(3H)-one] | 200 |  |  |
| Cn1cc(-c2ccc(-c3ccc4ncc5c(c4c3)n([C@@H]3CCCN(S(=O)(=O)C4CC4)C3)c(=O)n5C)cn2)cn1 [Example 53, (R)-1-(1-(cyclopropylsulfonyl)piperidin-3-yl)-3-methyl-8-(6-(1-methyl-1H-pyrazol-4-yl)pyridin-3-yl)-1H-imidazo[4,5-c]quinolin-2(3H)-one] | 100 | < 20 |  |
| Cn1cc(-c2ccc(-c3ccc4ncc5c(c4c3)n(-c3ccc(C(C)(C)C(=O)O)cc3)c(=O)n5C)cn2)cn1 [Example 41, 2-methyl-2-(4-(3-methyl-8-(6-(1-methyl-1H-pyrazol-4-yl)pyridin-3-yl)-2-oxo-2,3-dihydro-1H-imidazo[4,5-c]quinolin-1-yl)phenyl)propionic acid] |  |  | 100 |
| Cn1cc(-c2ccc(-c3ccc4ncc5c(c4c3)n(C3CCN(S(C)(=O)=O)CC3)c(=O)n5C)cn2)nn1 [Example 60, 3-methyl-8-(6-(1-methyl-1H-1,2,3-triazol-4-yl)pyridin-3-yl)-1-(1-(methanesulfonyl)piperidin-4-yl)-1H-imidazo[4,5-c]quinolin-2(3H)-one] | 40 | < 30 | < 100 |
| Cn1cc(-c2ccc(-c3ccc4ncc5c(c4c3)n([C@H]3CC[C@@H](O)CC3)c(=O)n5C)cn2)nn1 [Example 51, 1-((1s,4s)-4-hydroxycyclohexyl)-3-methyl-8-(6-(1-methyl-1H-1,2,3-triazol-4-yl)pyridin-3-yl)-1H-imidazo[4,5-c]quinolin-2(3H)-one] | 10 | < 10 | < 20 |
| Cn1cc(-c2ccc(-c3ccc4ncc5c(c4c3)n(-c3ccc(C(C)(C)C(N)=O)cc3)c(=O)n5C)cn2)cn1 [Example 40, 2-methyl-2-(4-(3-methyl-8-(6-(1-methyl-1H-pyrazol-4-yl)pyridin-3-yl)-2-oxo-2,3-dihydro-1H-imidazo[4,5-c]quinolin-1-yl)phenyl)propionamide] | 25 | 10 | 30 |
| Cn1cc(-c2ccc(-c3ccc4ncc5c(c4n3)n([C@H]3CCN(S(C)(=O)=O)C3)c(=O)n5C)cn2)nn1 [Example 50, (S)-3-methyl-8-(6-(1-methyl-1H-1,2,3-triazol-4-yl)pyridin-3-yl)-1-(1-(methanesulfonyl)pyrrolidin-3-yl)-1H-imidazo[4,5-c][1,5]naphthyridin-2(3H)-one] | 30 | 20 | < 30 |
| Cn1cc(-c2ccc(-c3ccc4ncc5c(c4c3)n([C@H]3CC[C@@H](NS(C)(=O)=O)CC3)c(=O)n5C)cn2)cn1 [Example 34, N-((1s,4s)-4-(3-methyl-8-(6-(1-methyl-1H-pyrazol-4-yl)pyridin-3-yl)-2-oxo-2,3-dihydro-1H-imidazo[4,5-c]quinolin-1-yl)cyclohexyl)methanesulfonamide] | < 50 | < 100 | < 200 |
| Cn1cc(-c2ccc(-c3ccc4ncc5c(c4c3)n([C@@H]3CCCN(S(=O)(=O)C(F)(F)F)C3)c(=O)n5C)cn2)cn1 [Example 56, (R)-3-methyl-8-(6-(1-methyl-1H-pyrazol-4-yl)pyridin-3-yl)-1-(1-((trifluoromethyl)sulfonyl)piperidin-3-yl)-1H-imidazo[4,5-c]quinolin-2(3H)-one] | 70 | < 30 | 60 |
| Cn1cc(-c2ccc(-c3ccc4ncc5c(c4c3)n([C@H]3CC[C@@H](C(=O)O)CC3)c(=O)n5C)cn2)cn1 [Example 35, (1s,4s)-4-(3-methyl-8-(6-(1-methyl-1H-pyrazol-4-yl)pyridin-3-yl)-2-oxo-2,3-dihydro-1H-imidazo[4,5-c]quinolin-1-yl)cyclohexanecarboxylic acid] | < 200 |  | < 500 |
| Cn1cc(-c2ccc(-c3ccc4ncc5c(c4c3)n([C@@H]3CCCN(S(C)(=O)=O)C3)c(=O)n5C)cn2)nn1 [Example 58, (R)-3-methyl-8-(6-(1-methyl-1H-1,2,3-triazol-4-yl)pyridin-3-yl)-1-(1-(methanesulfonyl)piperidin-3-yl)-1H-imidazo[4,5-c]quinolin-2(3H)-one] |  |  | 60 |
| Cn1cnc(-c2ccc(-c3ccc4ncc5c(c4c3)n([C@H]3CCN(S(C)(=O)=O)C3)c(=O)n5C)cn2)n1 [Example 48, (S)-3-methyl-8-(6-(1-methyl-1H-1,2,4-triazol-3-yl)pyridin-3-yl)-1-(1-(methanesulfonyl)pyrrolidin-3-yl)-1H-imidazo[4,5-c]quinolin-2(3H)-one] | < 100 |  |  |
| Cn1c(=O)n([C@H]2CCN(S(C)(=O)=O)C2)c2c3cc(-c4ccc(-n5ccnn5)nc4)ccc3ncc21 [Example 46, (S)-8-(6-(1H-1,2,3-triazol-1-yl)pyridin-3-yl)-3-methyl-1-(1-(methanesulfonyl)pyrrolidin-3-yl)-1H-imidazo[4,5-c]quinolin-2(3H)-one] | 400 |  |  |
| Cn1cc(-c2ccc(-c3ccc4ncc5c(c4c3)n([C@@H]3CCCN(S(N)(=O)=O)C3)c(=O)n5C)cn2)cn1 [Example 54, (R)-3-(3-methyl-8-(6-(1-methyl-1H-pyrazol-4-yl)pyridin-3-yl)-2-oxo-2,3-dihydro-1H-imidazo[4,5-c]quinolin-1-yl)piperidine-1-sulfamide] | 70 |  |  |
| Cn1cc(-c2ccc(-c3ccc4ncc5c(c4c3)n(CCNS(C)(=O)=O)c(=O)n5C)cn2)cn1 [Example 63, N-(2-(3-methyl-8-(6-(1-methyl-1H-pyrazol-4-yl)pyridin-3-yl)-2-oxo-2,3-dihydro-1H-imidazo[4,5-c]quinolin-1-yl)ethyl)methanesulfonamide] | 300 |  |  |
